What was measured:
[1] = test system: EPISKIN model of reconstructed human epidermis; experiment: MTT cell viability test on EPISKIN model (in vitro skin irritation); format: cell-based
Experimental: 2.1.1 EPISKIN™ model (EPISKIN-SM™), EPISKIN SNC Lyon, France, is a model of reconstructed human epidermis. The human keratinocytes are seeded on a dermal substitute consisting of a collagen type I matrix coated with type IV collagen. A highly differentiated and stratified epidermis model is obtained after a 13-day culture period comprising the basal, suprabasal, spinous and granular layers and a functional stratum corneum (Tinois et al., 1984). The model is used in the skin irritation applying the substances being examined at topical level to the epidermis and subsequently assessing cell viability.
10 μl of the solutions were applied to the surface of the epidermis for 15 minutes, followed by 42 hours of recovery.
VitroScreen is implementing a quality system in compliance with the GLP regulations (2004/9/CE and 2004/10/CE) in preparation of the GLP Audit and relative certification. The methods utilized in the study were entered in the list of VitroScreen methods. Following a validation study coordinated by ECVAM the Episkin test system was validated by the ESAC (27/04/07); this uses a model of epidermis reconstructed in vitro—EPISKIN—to assess skin irritation produced by chemical substances for hazard identification and R38 classification: cell viability is quantified after 15 min of exposure +42 h of recovery. Quantification of IL-1α with the ELISA method is part of the validated method for skin irritation as it allows the substances to be distinguished even when there is no decrease in cell viability.
The MTT test is considered an international standard for quantification of cytotoxicity (ISO 10993-5). The method allows quantification of the cytotoxic effect produced by the product through measuring cell viability. Cytotoxicity is quantified by measuring the decrease in cell viability compared to an untreated negative control. It is based on the metabolizing reaction which takes place between the salt of tetrazolium (MTT) and the mitochondrial enzymes (succinate dehydrogenase) after contact with the product for the various treatment times: only the viable cell can transform the salt of tetrazolium into the insoluble derivative (Formazan), reaction which is highlighted by the formation of a purple color at the bottom of the insert.
Metabolization of the salt takes place at the level of the basal cells of the epithelium in the area above the polycarbonate support.
The purple colored derivative is extracted in isopropanol and quantified spectrophotometrically at 570 nm.
At the end of treatment and post-incubation with the substances being examined, the EPISKIN models are transferred to 12 well plates, filled with 2 ml of MTT (used at the concentration of 0.3 mg/ml in the assay medium) and the test is conducted for 3 hours at 37° C., 5% CO2, 90% humidity.
The formazan is extracted from the tissue in Eppendorf tubes with 500 μl of acidified isopropanol (0.04 N HCL final concentration) with incubation in the dark under stirring for 4 hours at room temperature.
10 μl of the substances being examined, of the positive (SDS 5%) and negative (sterile water) control are applied to the surface of the epidermis.
The treated tissues are maintained at room temperature for 15 minutes (±0.5 minutes).
At the end of incubation the tissues are washed 2-3 times with PBS and placed in an incubator with fresh maintenance medium for 42 hours of recovery.
The TEER is measured post-treatment and the MTT test is then conducted for 3 hours at 37° C. and formazan is subsequently extracted for 4 hours as described in the methods.
At the end of the test 2×200 μl of sample for each well are transferred to 96 well plates and read spectrophotometrically at 570 nm.
The optical densities are recorded directly by the Microplate autoreader (TECAN INFINITE M-200), exported to Excel files and the cell viability % is calculated compared to the optical density of the negative control. […]

[2] = pH of the prepared solutions; format: physicochemical; conditions: positive control solution
Experimental: The solutions are prepared and the pH is measured.

Row | Compound | irritation classification by predictive model ([1]; MAG at 2%) | cytotoxic effects ([1]; MAG at 2%, 15 min exposure + 42 h recovery) | irritation classification by predictive model ([1]; MAG at 2%, listed as Mono-Ammonium Glycyrrhizate) | irritation classification by predictive model ([1]; MAG at 5%) | loss of viability ([1]; MAG at 5%, 15 min exposure + 42 h recovery) [%] | irritation classification by predictive model ([1]; MAG at 5%, listed as Mono-Ammonium Glycyrrhizate) | reduction in viability ([1]; SDS 5%, 10 μl, 15 min exposure + 42 h recovery, vs negative control) [%] | irritation classification by predictive model ([1]; solution as tested, 15 min exposure + 42 h recovery, cut-off 50% viability, sulfate) | pH [2]
1 | CC1(C)[C@@H](O[C@H]2O[C@H](C(=O)O)[C@@H](O)[C@H](O)[C@H]2O[C@@H]2O[C@H](C(=O)O)[C@@H](O)[C@H](O)[C@H]2O)CC[C@]2(C)[C@H]3C(=O)C=C4[C@@H]5C[C@@](C)(C(=O)O)CC[C@]5(C)CC[C@@]4(C)[C@]3(C)CC[C@@H]12.N [MAG, monoammonium glycyrrhizinate] | non-irritant | no cytotoxic effects | NON IRRITANT (NI) | non-irritant | 20 | NON IRRITANT (NI) | – | – | –
2 | CCCCCCCCCCCCOS(=O)(=O)[O-].[Na+] [SDS 5%, sodium dodecyl sulfate, reference compound] | – | – | – | – | – | – | 80 | R38 irritant | 5.80

Reference: patent publication US20130143830A1, “AGENTS FOR COMBATING AND REDUCING THE IRRITATING ACTION OF SURFACTANTS IN COMPOSITIONS TO BE APPLIED TO THE SKIN FOR CARE OR CLEANSING OF THE FACE AND BODY” (GIULIANI S.P.A, priority 2008, published 2013)
